According to patent publication US20230085307A1, “PYRIDAZINONE COMPOUND AND HERBICIDE” (NISSAN CHEMICAL CORPORATION, priority 2019, published 2023):

Legend:
barnyard grass [1] = assay: Test Example 4: herbicidal effect by soil treatment (Table 19, symbol H); type: in vivo, barnyard grass (Echinochloa crus-galli); conditions: amount of applied herbicide 320 g/ha
In short: (§1)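 In this soil treatment, the formulated compound reached the seeds only through the soil: seeds were buried about 1.5 cm deep in sterilized diluvial soil, then the diluted emulsion was sprayed over the surface. After three weeks at 25° C. to 30° C. in a greenhouse, effects were graded on criteria from an earlier test.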

blackgrass [2] = assay: Test Example 4: herbicidal effect by soil treatment (Table 19, symbol J); type: in vivo, blackgrass (Alopecurus myosuroides); conditions: amount of applied herbicide 320 g/ha
In short: as §1

chickweed [3] = assay: Test Example 5: herbicidal effect by foliage application, plastic box (Table 20, symbol P); type: in vivo, common chickweed (Stellaria media); conditions: 320 g/ha, foliage application after 14-day growth, evaluated three weeks after application
In short: (§2)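 Plants were sown into sterilized diluvial soil under about 1.5 cm cover and kept in a greenhouse at 25° C. to 30° C. Fourteen days on, foliage received an even spray of the diluted emulsion. Herbicidal or crop effect was judged three weeks afterwards.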

velvetleaf [4] = assay: Test Example 4: herbicidal effect by soil treatment (Table 19, symbol M); type: in vivo, velvetleaf (Abutilon theophrasti); conditions: amount of applied herbicide 320 g/ha
In short: as §1

green foxtail = assay: Test Example 4: herbicidal effect by soil treatment (Table 19, symbol G); type: in vivo, green foxtail (Setaria viridis); conditions: amount of applied herbicide 320 g/ha
In short: as §1

redroot pigweed = assay: Test Example 5: herbicidal effect by foliage application, plastic box (Table 20, symbol N); type: in vivo, redroot pigweed (Amaranthus retroflexus); conditions: 320 g/ha, foliage application after 14-day growth, evaluated three weeks after application
In short: as §2

wild oat = assay: Test Example 4: herbicidal effect by soil treatment (Table 19, symbol I); type: in vivo, wild oat (Avena fatua); conditions: amount of applied herbicide 320 g/ha
In short: as §1

Italian ryegrass [5] = assay: Test Example 4: herbicidal effect by soil treatment (Table 19, symbol K); type: in vivo, Italian ryegrass (Lolium multiflorum); conditions: amount of applied herbicide 320 g/ha
In short: as §1

velvetleaf [6] = assay: Test Example 5: herbicidal effect by foliage application, plastic box (Table 20, symbol M); type: in vivo, velvetleaf (Abutilon theophrasti); conditions: 320 g/ha, foliage application after 14-day growth, evaluated three weeks after application
In short: as §2

chickweed [7] = assay: Test Example 4: herbicidal effect by soil treatment (Table 19, symbol P); type: in vivo, common chickweed (Stellaria media); conditions: amount of applied herbicide 320 g/ha
In short: as §1

lambsquarters = assay: Test Example 4: herbicidal effect by soil treatment (Table 19, symbol O); type: in vivo, lambsquarters (Chenopodium album); conditions: amount of applied herbicide 320 g/ha
In short: as §1

blackgrass [8] = assay: Test Example 5: herbicidal effect by foliage application, plastic box (Table 20, symbol J); type: in vivo, blackgrass (Alopecurus myosuroides); conditions: 320 g/ha, foliage application after 14-day growth, evaluated three weeks after application
In short: as §2

late watergrass = assay: Test Example 2: herbicidal activity, application during weed generation under submerged conditions (Table 17, symbol A); type: in vivo, late watergrass (Echinochloa oryzicola); conditions: AAH 320 g/ha; application during weed generation, submerged conditions
In short: (§3)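 3-wk visual-criteria score after one water-surface dose. Emulsion formulation, water-diluted to set rate; applied at 1–2 leaf stage; alluvial soil, 4 cm standing water; seeds co-sown; greenhouse 25–30° C.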

Italian ryegrass [9] = assay: Test Example 5: herbicidal effect by foliage application, plastic box (Table 20, symbol K); type: in vivo, Italian ryegrass (Lolium multiflorum); conditions: 320 g/ha, foliage application after 14-day growth, evaluated three weeks after application
In short: as §2

barnyard grass [10] = assay: Test Example 3: herbicidal effect by foliage application, Wagner pot (Table 18, symbol H); type: in vivo, barnyard grass (Echinochloa crus-galli); conditions: 320 g/ha
In short: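 Plants were sown in alluvial soil held under 0.1–0.5 cm standing water and grown 14 days in a greenhouse at 25–30 °C. An emulsifiable formulation, water-diluted to the set dose, was then sprayed onto the foliage, and effects were scored three weeks later using previously defined criteria.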

Japanese bulrush = assay: Test Example 2: herbicidal activity, application during weed generation under submerged conditions (Table 17, symbol B); type: in vivo, Japanese bulrush (Schoenoplectus juncoides); conditions: AAH 320 g/ha; application during weed generation, submerged conditions
In short: as §3

persian speedwell = assay: Test Example 5: herbicidal effect by foliage application, plastic box (Table 20, symbol R); type: in vivo, Persian speedwell (Veronica persica); conditions: 320 g/ha, foliage application after 14-day growth, evaluated three weeks after application
In short: as §2

C=C(C)C(=O)Oc1c(C)nn(C)c(=O)c1-c1c(-c2ccccc2OC)sc2cc(OC)ccc12 [3-155]
Herbicidal effect by soil treatment, H: barnyard grass (barnyard grass [1]): 2 (Herbicidal rate of 20% or more and less than 40%)
Herbicidal effect by soil treatment, J: blackgrass (blackgrass [2]): 4 (Herbicidal rate of 70% or more and less than 90%)
herbicidal effect on P: chickweed (evaluation grade 0-5) (chickweed [3]): 5 (Herbicidal rate of 90% or more (almost completely withered))
Herbicidal effect by soil treatment, M: velvetleaf (velvetleaf [4]): 0 (Herbicidal rate of 5% or less (almost no effect))
Herbicidal effect by soil treatment, G: green foxtail (green foxtail): 0 (Herbicidal rate of 5% or less (almost no effect))
herbicidal effect on N: redroot pigweed (evaluation grade 0-5) (redroot pigweed): 5 (Herbicidal rate of 90% or more (almost completely withered))
Herbicidal effect by soil treatment, I: wild oat (wild oat): 0 (Herbicidal rate of 5% or less (almost no effect))
Herbicidal effect by soil treatment, K: Italian ryegrass (Italian ryegrass [5]): 3 (Herbicidal rate of 40% or more and less than 70%)
herbicidal effect on M: velvetleaf (evaluation grade 0-5) (velvetleaf [6]): 5 (Herbicidal rate of 90% or more (almost completely withered))
Herbicidal effect by soil treatment, P: chickweed (chickweed [7]): 1 (Herbicidal rate of 5% or more and less than 20%)
Herbicidal effect by soil treatment, O: lambsquarters (lambsquarters): 0 (Herbicidal rate of 5% or less (almost no effect))
herbicidal effect on J: blackgrass (evaluation grade 0-5) (blackgrass [8]): 5 (Herbicidal rate of 90% or more (almost completely withered))
herbicidal effect rating, A: late watergrass (late watergrass): 5 (Herbicidal rate of 90% or more (almost completely withered))
herbicidal effect on K: Italian ryegrass (evaluation grade 0-5) (Italian ryegrass [9]): 4 (Herbicidal rate of 70% or more and less than 90%)
herbicidal effect on barnyard grass (H) (barnyard grass [10]): 5 (Herbicidal rate of 90% or more (almost completely withered))
herbicidal effect rating, B: Japanese bulrush (Japanese bulrush): 5 (Herbicidal rate of 90% or more (almost completely withered))
herbicidal effect on R: persian speedwell (evaluation grade 0-5) (persian speedwell): 5 (Herbicidal rate of 90% or more (almost completely withered))

COc1ccc2c(-c3c(OC(=O)c4ccccc4OC)c(C)nn(C)c3=O)c(-c3ccccc3OC)sc2c1 [3-158]
Herbicidal effect by soil treatment, H: barnyard grass (barnyard grass [1]): 0 (Herbicidal rate of 5% or less (almost no effect))
Herbicidal effect by soil treatment, J: blackgrass (blackgrass [2]): 0 (Herbicidal rate of 5% or less (almost no effect))
herbicidal effect on P: chickweed (evaluation grade 0-5) (chickweed [3]): 5 (Herbicidal rate of 90% or more (almost completely withered))
Herbicidal effect by soil treatment, M: velvetleaf (velvetleaf [4]): 0 (Herbicidal rate of 5% or less (almost no effect))
Herbicidal effect by soil treatment, G: green foxtail (green foxtail): 0 (Herbicidal rate of 5% or less (almost no effect))
herbicidal effect on N: redroot pigweed (evaluation grade 0-5) (redroot pigweed): 5 (Herbicidal rate of 90% or more (almost completely withered))
Herbicidal effect by soil treatment, I: wild oat (wild oat): 0 (Herbicidal rate of 5% or less (almost no effect))
Herbicidal effect by soil treatment, K: Italian ryegrass (Italian ryegrass [5]): 0 (Herbicidal rate of 5% or less (almost no effect))
herbicidal effect on M: velvetleaf (evaluation grade 0-5) (velvetleaf [6]): 5 (Herbicidal rate of 90% or more (almost completely withered))
Herbicidal effect by soil treatment, P: chickweed (chickweed [7]): 1 (Herbicidal rate of 5% or more and less than 20%)
Herbicidal effect by soil treatment, O: lambsquarters (lambsquarters): 0 (Herbicidal rate of 5% or less (almost no effect))
herbicidal effect on J: blackgrass (evaluation grade 0-5) (blackgrass [8]): 5 (Herbicidal rate of 90% or more (almost completely withered))
herbicidal effect rating, A: late watergrass (late watergrass): 4 (Herbicidal rate of 70% or more and less than 90%)
herbicidal effect on K: Italian ryegrass (evaluation grade 0-5) (Italian ryegrass [9]): 4 (Herbicidal rate of 70% or more and less than 90%)
herbicidal effect on barnyard grass (H) (barnyard grass [10]): 5 (Herbicidal rate of 90% or more (almost completely withered))
herbicidal effect rating, B: Japanese bulrush (Japanese bulrush): 3 (Herbicidal rate of 40% or more and less than 70%)
herbicidal effect on R: persian speedwell (evaluation grade 0-5) (persian speedwell): 5 (Herbicidal rate of 90% or more (almost completely withered))

CCCC(=O)Oc1c(C)nn(C)c(=O)c1-c1c(-c2ccc(OC)cc2)sc2c(F)cccc12 [4-006]
Herbicidal effect by soil treatment, H: barnyard grass (barnyard grass [1]): 4 (Herbicidal rate of 70% or more and less than 90%)
Herbicidal effect by soil treatment, J: blackgrass (blackgrass [2]): 0 (Herbicidal rate of 5% or less (almost no effect))
herbicidal effect on P: chickweed (evaluation grade 0-5) (chickweed [3]): 5 (Herbicidal rate of 90% or more (almost completely withered))
Herbicidal effect by soil treatment, M: velvetleaf (velvetleaf [4]): 1 (Herbicidal rate of 5% or more and less than 20%)
Herbicidal effect by soil treatment, G: green foxtail (green foxtail): 4 (Herbicidal rate of 70% or more and less than 90%)
herbicidal effect on N: redroot pigweed (evaluation grade 0-5) (redroot pigweed): 5 (Herbicidal rate of 90% or more (almost completely withered))
Herbicidal effect by soil treatment, I: wild oat (wild oat): 0 (Herbicidal rate of 5% or less (almost no effect))
Herbicidal effect by soil treatment, K: Italian ryegrass (Italian ryegrass [5]): 0 (Herbicidal rate of 5% or less (almost no effect))
herbicidal effect on M: velvetleaf (evaluation grade 0-5) (velvetleaf [6]): 5 (Herbicidal rate of 90% or more (almost completely withered))
Herbicidal effect by soil treatment, P: chickweed (chickweed [7]): 0 (Herbicidal rate of 5% or less (almost no effect))
Herbicidal effect by soil treatment, O: lambsquarters (lambsquarters): 4 (Herbicidal rate of 70% or more and less than 90%)
herbicidal effect on J: blackgrass (evaluation grade 0-5) (blackgrass [8]): 1 (Herbicidal rate of 5% or more and less than 20%)
herbicidal effect rating, A: late watergrass (late watergrass): 3 (Herbicidal rate of 40% or more and less than 70%)
herbicidal effect on K: Italian ryegrass (evaluation grade 0-5) (Italian ryegrass [9]): 4 (Herbicidal rate of 70% or more and less than 90%)
herbicidal effect on barnyard grass (H) (barnyard grass [10]): 5 (Herbicidal rate of 90% or more (almost completely withered))
herbicidal effect rating, B: Japanese bulrush (Japanese bulrush): 3 (Herbicidal rate of 40% or more and less than 70%)
herbicidal effect on R: persian speedwell (evaluation grade 0-5) (persian speedwell): 3 (Herbicidal rate of 40% or more and less than 70%)

CCCOc1ccc(-c2sc3c(Cl)cccc3c2-c2c(OC(=O)CCC)c(C)nn(C)c2=O)cc1 [4-028]
Herbicidal effect by soil treatment, H: barnyard grass (barnyard grass [1]): 0 (Herbicidal rate of 5% or less (almost no effect))
Herbicidal effect by soil treatment, J: blackgrass (blackgrass [2]): 0 (Herbicidal rate of 5% or less (almost no effect))
herbicidal effect on P: chickweed (evaluation grade 0-5) (chickweed [3]): 5 (Herbicidal rate of 90% or more (almost completely withered))
Herbicidal effect by soil treatment, M: velvetleaf (velvetleaf [4]): 1 (Herbicidal rate of 5% or more and less than 20%)
Herbicidal effect by soil treatment, G: green foxtail (green foxtail): 0 (Herbicidal rate of 5% or less (almost no effect))
herbicidal effect on N: redroot pigweed (evaluation grade 0-5) (redroot pigweed): 5 (Herbicidal rate of 90% or more (almost completely withered))
Herbicidal effect by soil treatment, I: wild oat (wild oat): 0 (Herbicidal rate of 5% or less (almost no effect))
Herbicidal effect by soil treatment, K: Italian ryegrass (Italian ryegrass [5]): 0 (Herbicidal rate of 5% or less (almost no effect))
herbicidal effect on M: velvetleaf (evaluation grade 0-5) (velvetleaf [6]): 5 (Herbicidal rate of 90% or more (almost completely withered))
Herbicidal effect by soil treatment, P: chickweed (chickweed [7]): 0 (Herbicidal rate of 5% or less (almost no effect))
Herbicidal effect by soil treatment, O: lambsquarters (lambsquarters): 4 (Herbicidal rate of 70% or more and less than 90%)
herbicidal effect on J: blackgrass (evaluation grade 0-5) (blackgrass [8]): 0 (Herbicidal rate of 5% or less (almost no effect))
herbicidal effect rating, A: late watergrass (late watergrass): 3 (Herbicidal rate of 40% or more and less than 70%)
herbicidal effect on K: Italian ryegrass (evaluation grade 0-5) (Italian ryegrass [9]): 2 (Herbicidal rate of 20% or more and less than 40%)
herbicidal effect on barnyard grass (H) (barnyard grass [10]): 5 (Herbicidal rate of 90% or more (almost completely withered))
herbicidal effect rating, B: Japanese bulrush (Japanese bulrush): 3 (Herbicidal rate of 40% or more and less than 70%)
herbicidal effect on R: persian speedwell (evaluation grade 0-5) (persian speedwell): 5 (Herbicidal rate of 90% or more (almost completely withered))
